Measured values published in ChEMBL document CHEMBL1255340, “In vitro activities of the Rx-01 oxazolidinones against hospital and community pathogens” (2008).
Converted amounts (≈) assume the structure as drawn. “And” between values parts separate entries of the source, which are not always exact repeats. Equal entries are not always repeated.

Columns and labels:
Type in all cases: functional
[1] = test system: Enterococcus faecium; assay: Antimicrobial activity against Enterococcus faecium A8948
[2] = test system: Streptococcus pneumoniae; assay: Antimicrobial activity against Streptococcus pneumoniae 02J1175
[3] = test system: Staphylococcus aureus; assay: Antimicrobial activity against Staphylococcus aureus A7817
[4] = test system: Staphylococcus aureus; assay: Antimicrobial activity against Staphylococcus aureus pL150
[5] = test system: Enterococcus faecalis; assay: Antimicrobial activity against Enterococcus faecalis A6350
[6] = test system: Enterococcus faecium; assay: Antimicrobial activity against Enterococcus faecium A5959
[7] = test system: Staphylococcus epidermidis; assay: Antimicrobial activity against Staphylococcus epidermidis A8934
[8] = test system: Enterococcus faecalis; assay: Antimicrobial activity against Enterococcus faecalis A7789
[9] = test system: Streptococcus pneumoniae; assay: Antimicrobial activity against Streptococcus pneumoniae 02J1258 assessed as log reduction in bacterial growth at 8 times MIC after 24 hrs by time-kill assay
[10] = test system: Staphylococcus aureus; assay: Antimicrobial activity against Staphylococcus aureus ATCC 29213
[11] = test system: Haemophilus influenzae; assay: Antimicrobial activity against Haemophilus influenzae A1950 assessed as log reduction in bacterial growth at 8 times MIC after 24 hrs by time-kill assay
[12] = test system: Enterococcus faecalis; assay: Antimicrobial activity against Enterococcus faecalis A6343
[13] = test system: Enterococcus faecium; assay: Antimicrobial activity against Enterococcus faecium A6348 harboring G2576U mutation in 23S rRNA
[14] = test system: Haemophilus influenzae; assay: Antimicrobial activity against Haemophilus influenzae A1950 assessed as log reduction in bacterial growth at 4 times MIC after 24 hrs by time-kill assay
[15] = test system: Staphylococcus aureus; assay: Antimicrobial activity against Staphylococcus aureus A8761
[16] = test system: Staphylococcus aureus; assay: Antimicrobial activity against Staphylococcus aureus pLXM1 harboring cfr gene
[17] = test system: Staphylococcus capitis; assay: Antimicrobial activity against Staphylococcus capitis A8935
[18] = test system: Enterococcus faecalis; assay: Antimicrobial activity against vancomycin-resistant Enterococcus faecalis nosocomial isolate
[19] = test system: Enterococcus faecalis; assay: Antimicrobial activity against Enterococcus faecalis A5962
[20] = test system: Staphylococcus aureus; assay: Antimicrobial activity against methicillin-resistant Staphylococcus aureus BK 11118
[21] = test system: Haemophilus influenzae; assay: Antimicrobial activity against Haemophilus influenzae 54A1100
[22] = test system: Streptococcus pneumoniae; assay: Antimicrobial activity against Streptococcus pneumoniae harboring erm(B) gene by broth microdilution method
[23] = test system: Enterococcus faecalis; assay: Antimicrobial activity against vancomycin-resistant Enterococcus faecalis 03B1069
[24] = test system: Enterococcus faecium; assay: Antimicrobial activity against Enterococcus faecium A6345
[25] = test system: Streptococcus pyogenes; assay: Antimicrobial activity against Streptococcus pyogenes
[26] = test system: Staphylococcus aureus; assay: Antimicrobial activity against Staphylococcus aureus A7820
[27] = test system: Streptococcus pneumoniae; assay: Antimicrobial activity against Streptococcus pneumoniae 02J1175 assessed as log reduction in bacterial growth at 4 times MIC after 24 hrs by time-kill assay
[28] = test system: Staphylococcus aureus; assay: Antimicrobial activity against Staphylococcus aureus A8727
[29] = test system: Staphylococcus aureus; assay: Antimicrobial activity against Staphylococcus aureus A8833 harboring U2500A mutation in 23S rRNA
[30] = test system: Streptococcus pneumoniae; assay: Antimicrobial activity against Streptococcus pneumoniae 02J1175 assessed as log reduction in bacterial growth at 8 times MIC after 24 hrs by time-kill assay
[31] = test system: Staphylococcus aureus; assay: Antimicrobial activity against methicillin-susceptible Staphylococcus aureus nosocomial isolate
[32] = test system: Enterococcus faecium; assay: Antimicrobial activity against Enterococcus faecium A8767
[33] = test system: Haemophilus influenzae; assay: Antimicrobial activity against Haemophilus influenzae 54A1100 assessed as log reduction in bacterial growth at 8 times MIC after 24 hrs by time-kill assay
[34] = test system: Enterococcus faecium; assay: Antimicrobial activity against Enterococcus faecium A5960
[35] = test system: Haemophilus influenzae; assay: Antimicrobial activity against Haemophilus influenzae 54A1100 assessed as log reduction in bacterial growth at 4 times MIC after 24 hrs by time-kill assay
[36] = test system: Streptococcus pneumoniae; assay: Antimicrobial activity against Streptococcus pneumoniae 02J1258 assessed as log reduction in bacterial growth at 4 times MIC after 24 hrs by time-kill assay
[37] = test system: Enterococcus faecium; assay: Antimicrobial activity against Enterococcus faecium A6349
[38] = test system: Enterococcus faecium; assay: Antimicrobial activity against Enterococcus faecium A9650
[39] = test system: Enterococcus faecium; assay: Antimicrobial activity against Enterococcus faecium A6349 harboring G2576U mutation in 23S rRNA
[40] = test system: Streptococcus pneumoniae; assay: Antimicrobial activity against Streptococcus pneumoniae 02J1258
[41] = test system: Streptococcus pneumoniae; assay: Antimicrobial activity against Streptococcus pneumoniae PU1071099 harboring 65WR66 deletion in ribosomal protein L4 by broth microdilution method
[42] = test system: Enterococcus faecium; assay: Antimicrobial activity against Enterococcus faecium A9621 by broth microdilution method
[43] = test system: Moraxella catarrhalis; assay: Antimicrobial activity against Moraxella catarrhalis
[44] = test system: Haemophilus influenzae; assay: Antimicrobial activity against Haemophilus influenzae A1950
[45] = test system: Staphylococcus aureus; assay: Antimicrobial activity against methicillin resistant Staphylococcus aureus 67-0
[46] = test system: Staphylococcus aureus; assay: Antimicrobial activity against Staphylococcus aureus A8831 harboring U2500A mutation in 23S rRNA
[47] = test system: Streptococcus pneumoniae; assay: Antimicrobial activity against Streptococcus pneumoniae harboring erm(B) and mef(A) gene
[48] = test system: Enterococcus faecium; assay: Antimicrobial activity against Enterococcus faecium A8130
[49] = test system: Enterococcus faecalis; assay: Antimicrobial activity against Enterococcus faecalis ATCC 29212
[50] = test system: Staphylococcus aureus; assay: Antimicrobial activity against methicillin-resistant Staphylococcus aureus BK 11512
[51] = test system: Enterococcus faecalis; assay: Antimicrobial activity against Enterococcus faecalis ATCC 29212-P5 harboring G2576U mutation in 23S rRNA
[52] = test system: Staphylococcus aureus; assay: Antimicrobial activity against Staphylococcus aureus A7819 harboring G2576U mutation in 23S rRNA
[53] = test system: Streptococcus pneumoniae; assay: Antimicrobial activity against Streptococcus pneumoniae ribosomal mutant
[54] = test system: Staphylococcus hominis; assay: Antimicrobial activity against Staphylococcus hominis A7828
[55] = test system: Haemophilus influenzae; assay: Antimicrobial activity against Haemophilus influenzae
[56] = Streptococcus pneumoniae, read-out: MIC

`CC(=O)NC[C@H]1CN(c2ccc(-c3ccc(CNCCCF)cc3)c(F)c2)C(=O)O1` was tested, and the MIC [1] was 0.5 µg/mL (≈ 1.2 µM), the MIC [2] was 0.125 µg/mL (≈ 0.299 µM) and the MIC [3] was 16 µg/mL (≈ 38.3 µM). For the same molecule, the MIC [4] was 0.5 µg/mL (≈ 1.2 µM), the MIC [5] was 1 µg/mL (≈ 2.4 µM) and the MIC [6] was 4 µg/mL (≈ 9.58 µM). It also gave an MIC [7] of 4 µg/mL (≈ 9.58 µM), an MIC [8] of 4 µg/mL (≈ 9.58 µM) and an FC [9] greater than 3. It also gave an MIC [10] of 2 µg/mL (≈ 4.79 µM), an FC [11] greater than 3 and an MIC [12] of 2 µg/mL (≈ 4.79 µM). The MIC [13] was 4 µg/mL (≈ 9.58 µM), the FC [14] was greater than 3 and the MIC [15] was 8 µg/mL (≈ 19.2 µM). It also gave an MIC [16] of 1 µg/mL (≈ 2.4 µM), an MIC [17] of 1 µg/mL (≈ 2.4 µM) and an MIC [18] of 0.5 µg/mL (≈ 1.2 µM). For the same molecule, the MIC ([18]; Enterococcus faecalis, read-out: MIC) was no more than 0.25 µg/mL, the MIC [19] was 4 µg/mL (≈ 9.58 µM) and the MIC [20] was 1 µg/mL (≈ 2.4 µM). It also gave an MIC [21] of 2 µg/mL (≈ 4.79 µM), an MIC [22, 56] of no more than 0.25 µg/mL and an MIC [23] of 0.5 µg/mL (≈ 1.2 µM). The MIC [24] was 4 µg/mL (≈ 9.58 µM), the MIC [25] was 0.25 µg/mL (≈ 0.599 µM) and the MIC ([25]; Streptococcus pyogenes, read-out: MIC) was 0.125 µg/mL (≈ 0.299 µM). The MIC [26] was 16 µg/mL (≈ 38.3 µM), the FC [27] was greater than 3 and the MIC [28] was 4 µg/mL (≈ 9.58 µM). For the same molecule, the MIC [29] was 32 µg/mL (≈ 76.7 µM), the FC [30] was greater than 3 and the MIC [31] was 1 µg/mL (≈ 2.4 µM). It also gave an MIC ([31]; Staphylococcus aureus, read-out: MIC) of 0.5 µg/mL (≈ 1.2 µM), an MIC [32] of 2 µg/mL (≈ 4.79 µM) and an FC [33] greater than 3. It also gave an MIC [34] of 4 µg/mL (≈ 9.58 µM), an FC [35] greater than 3 and an FC [36] greater than 3. It also gave an MIC [37] of 1 µg/mL (≈ 2.4 µM), an MIC [38] of 1 µg/mL (≈ 2.4 µM) and an MIC [39] of 1 µg/mL (≈ 2.4 µM). It also gave an MIC [40] of 0.25 µg/mL (≈ 0.599 µM), an MIC [41] of 0.5 µg/mL (≈ 1.2 µM) and an MIC [42] of 4 µg/mL (≈ 9.58 µM). The MIC [43] was 2 µg/mL (≈ 4.79 µM), the MIC ([43]; Moraxella catarrhalis, read-out: MIC) was 1 µg/mL (≈ 2.4 µM) and the MIC [44] was 4 µg/mL (≈ 9.58 µM). It also gave an MIC [45] of 1 µg/mL (≈ 2.4 µM), an MIC [46] of 64 µg/mL (≈ 153 µM) and an MIC [47] of no more than 0.25 µg/mL. The MIC [48] was 2 µg/mL (≈ 4.79 µM), the MIC [49] was 1 µg/mL (≈ 2.4 µM) and the MIC [50] was 2 µg/mL (≈ 4.79 µM). It also gave an MIC [51] of 2 µg/mL (≈ 4.79 µM), an MIC [52] of 16 µg/mL (≈ 38.3 µM) and an MIC [53] of no more than 0.25 µg/mL. It also gave an MIC [54] of 4 µg/mL (≈ 9.58 µM).
Molecule `CC[C@H]1OC(=O)[C@H](C)[C@@H](O[C@H]2C[C@@](C)(OC)[C@@H](O)[C@H](C)O2)[C@H](C)[C@@H](O[C@@H]2O[C@H](C)C[C@H](N(C)C)[C@H]2O)[C@](C)(O)C[C@@H](C)CN(C)[C@H](C)[C@@H](O)[C@]1(C)O` [AZITHROMYCIN] has an MIC [1] greater than 128 µg/mL, an MIC [2] of 32 µg/mL (≈ 42.7 µM) and an MIC [3] of 1 µg/mL (≈ 1.34 µM). The MIC [4] was 0.25 µg/mL (≈ 0.334 µM), the MIC [5] was 4 µg/mL (≈ 5.34 µM) and the MIC [6] was 8 µg/mL (≈ 10.7 µM). The MIC [7] was greater than 128 µg/mL, the MIC [8] was greater than 128 µg/mL and the MIC [10] was 1 µg/mL (≈ 1.34 µM). For the same molecule, the MIC [12] was greater than 128 µg/mL, the MIC [13] was greater than 128 µg/mL and the MIC [15] was greater than 128 µg/mL. It also gave an MIC [16] of 0.5 µg/mL (≈ 0.668 µM), an MIC [17] of 64 µg/mL (≈ 85.4 µM) and an MIC [19] greater than 128 µg/mL. For the same molecule, the MIC [20] was greater than 128 µg/mL, the MIC [21] was 1 µg/mL (≈ 1.34 µM) and the MIC [22, 56] was greater than 128 µg/mL. For the same molecule, the MIC [23] was greater than 128 µg/mL, the MIC [24] was 2 µg/mL (≈ 2.67 µM) and the MIC [25] was 0.03 µg/mL and 0.06 µg/mL. For the same molecule, the MIC [26] was greater than 128 µg/mL, the MIC [28] was 16 µg/mL (≈ 21.4 µM) and the MIC [29] was greater than 128 µg/mL. It also gave an MIC [32] greater than 128 µg/mL, an MIC [34] greater than 128 µg/mL and an MIC [37] greater than 128 µg/mL. It also gave an MIC [38] greater than 128 µg/mL, an MIC [40] greater than 128 µg/mL and an MIC [41] of 4 µg/mL (≈ 5.34 µM). The MIC [42] was 16 µg/mL (≈ 21.4 µM), the MIC [44] was 4 µg/mL (≈ 5.34 µM) and the MIC [45] was greater than 128 µg/mL. It also gave an MIC [46] greater than 128 µg/mL, an MIC [48] of 4 µg/mL (≈ 5.34 µM) and an MIC [49] of 8 µg/mL (≈ 10.7 µM). It also gave an MIC [50] greater than 128 µg/mL, an MIC [51] of 8 µg/mL (≈ 10.7 µM) and an MIC [52] of 2 µg/mL (≈ 2.67 µM). For the same molecule, the MIC [54] was greater than 128 µg/mL.
In the case of `CCC[C@@H]1C[C@@H](C(=O)N[C@@H]([C@H]2O[C@H](SC)[C@H](O)[C@@H](O)[C@H]2O)[C@H](C)Cl)N(C)C1` [CLINDAMYCIN], the MIC [22] is reported as greater than 128 µg/mL and the MIC [22, 56] is reported as greater than 64 µg/mL.
`C[C@H]1COc2c(N3CCN(C)CC3)c(F)cc3c(=O)c(C(=O)O)cn1c23.C[C@H]1COc2c(N3CCN(C)CC3)c(F)cc3c(=O)c(C(=O)O)cn1c23.O` [LEVOFLOXACIN] was tested, and the MIC [55] was 0.016 µg/mL and the MIC ([55]; Haemophilus influenzae, read-out: MIC) was 0.008 µg/mL.
